Laboratory results: US11472803B2, “7-substituted 1-aryl-naphthyridine-3-carboxylic acid amides and use thereof” (Bayer Aktiengesellschaft, priority 2016, dated 2022)

Molecular target: T1, human M2 receptor (Homo sapiens, UniProt P08172)
T1 construct: expressed in transfected cells; host or cells: CHO-DUKX (CHO-DUKX-M2-GIRK)
T1 sequence (P08172 1-466): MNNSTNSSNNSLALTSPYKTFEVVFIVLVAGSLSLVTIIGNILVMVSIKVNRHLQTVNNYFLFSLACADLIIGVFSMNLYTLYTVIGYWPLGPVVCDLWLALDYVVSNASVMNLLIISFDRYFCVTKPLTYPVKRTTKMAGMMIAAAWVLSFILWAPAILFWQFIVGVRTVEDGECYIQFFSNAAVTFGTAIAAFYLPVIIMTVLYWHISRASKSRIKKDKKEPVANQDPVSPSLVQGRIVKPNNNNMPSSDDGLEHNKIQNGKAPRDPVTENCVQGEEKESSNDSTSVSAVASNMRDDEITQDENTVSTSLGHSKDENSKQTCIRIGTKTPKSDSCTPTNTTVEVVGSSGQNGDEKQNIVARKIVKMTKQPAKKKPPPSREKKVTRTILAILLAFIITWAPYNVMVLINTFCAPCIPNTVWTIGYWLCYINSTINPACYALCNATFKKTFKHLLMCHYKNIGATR
Test: Functional M2-GIRK1/4 activation test: allosteric potency (EC50) and efficiency at EC20 acetylcholine
Format: cell-based
Conditions: CHO-DUKX-M2-GIRK cells; for EC50: voltage-sensitive dye, acetylcholine at EC20, in some cases mean of two or more determinations; for Efficiency / Emax: boosting of the acetylcholine effect at EC20 acetylcholine concentration
Text: The binding of orthosteric agonists (endogenous ligand: acetylcholine) to the M2 receptor leads to receptor activation or a change in conformation of the receptor in the manner of a shift in equilibrium in favour of the active receptor conformation.
The agonist-induced change in conformation of the M2 receptor results in a Gαi protein activation. […] Under physiological conditions, the result is then a selective efflux of potassium from the cell along the electrochemical gradient. […] The extent of hyperpolarization can therefore be regarded as a measure of the activation of the M2 receptor.
The test cell used is a recombinant CHO-DUKX cell line which has been stably transfected with cDNA coding for the human M2 receptor and with cDNA coding for both GIRK1/4 subunits (CHO-DUKX-M2-GIRK). The transmembrane potential, or the relative changes in the transmembrane potential as a function of substance addition or M2 activation, is determined by means of a voltage-sensitive dye (FLIPR Membrane Potential Assay Kit Blue, Molecular Devices #R8034) and the measurement of cell fluorescence using a proprietary fluorescence imaging instrument.
The sowing medium consisted of MEM alpha medium (supplemented with 5% PCS, 2% Glutamax, no genticin).
For the particular measurement, the medium was removed and the cells were laden with the volt-age-sensitive dye for at least 6 min at room temperature (30 μl of loading buffer per 384-well). This was followed, in a first measurement, by the determination of the fluorescence for the resting transmembrane potential for a period of 5 sec. Thereafter, 10 μl in each case of the test substances diluted in loading buffer were added, followed by a second measurement to determine the transmembrane potential for a period of 50 sec in 1 sec increments. Finally, the cells were admixed with 10 μl of agonist solution (acetylcholine dissolved in loading buffer). Acetylcholine was used at the concentration corresponding to the EC20, which had been determined in a preliminary test. The M2-mediated GIRK1/4 activation or hyperpolarization was then monitored in a third measurement over a period of 60 sec. The EC50 value (degree of allosteric potency of test compound) and the efficiency (measure of the boosting of the acetylcholine effect at an EC20 acetylcholine concentration) were determined with the aid of a 4-parameter logistic function (Hill function).

Row | SMILES | EC50 | Efficiency | Emax
1 | CC(NC(=O)c1cn(-c2c(F)cc(F)cc2F)c2nc(N3CCC(CO)(CO)CC3)c(F)cc2c1=O)C(F)(F)C(F)(F)F (single isomer, unassigned) [Example 187, 7-[4,4-bis(hydroxymethyl)piperidin-1-yl]-6-fluoro-4-oxo-N-(3,3,4,4,4-pentafluorobutan-2-yl)-1-(2,4,6-trifluorophenyl)-1,4-dihydro-1,8-naphthyridine-3-carboxamide] | 9.9 nM |  | 90%
2 | CC(NC(=O)c1cn(-c2c(F)cc(F)cc2F)c2nc(N3CC[C@H](O)[C@@H]3CO)c(F)cc2c1=O)C(F)(F)C(F)(F)F (single isomer, unassigned) [Example 194] | 31.5 nM |  | 94%
3 | O=C(NC(C1CC1)C(F)(F)C(F)(F)F)c1cn(-c2c(F)cc(F)cc2F)c2nc(N3CC4(COC4)C3)c(F)cc2c1=O (single isomer, unassigned) [Example 204, N-[1-cyclopropyl-2,2,3,3,3-pentafluoropropyl]-6-fluoro-7-(2-oxa-6-azaspiro[3.3]hept-6-yl)-4-oxo-1-(2,4,6-trifluorophenyl)-1,4-dihydro-1,8-naphthyridine-3-carboxamide] | 17 nM |  | 97%
4 | O=C(NC(C1CC1)C(F)(F)C(F)(F)F)c1cn(-c2c(F)cc(F)cc2F)c2nc(N3CC4(COC4)C3)c(F)cc2c1=O (single isomer, unassigned) [Example 206, N-[1-cyclopropyl-2,2,3,3,3-pentafluoropropyl]-6-fluoro-7-(2-oxa-6-azaspiro[3.3]hept-6-yl)-4-oxo-1-(2,4,6-trifluorophenyl)-1,4-dihydro-1,8-naphthyridine-3-carboxamide] | 10 nM | 100% | 
5 | CC(C)(C)C(NC(=O)c1cn(-c2c(F)cc(F)cc2F)c2nc(N3CC4(COC4)C3)c(F)cc2c1=O)C(F)(F)C(F)(F)F (single isomer, unassigned) [Example 213, 6-Fluoro-7-(2-oxa-6-azaspiro[3.3]hept-6-yl)-4-oxo-N-[1,1,1,2,2-pentafluoro-4,4-dimethylpentan-3-yl]-1-(2,4,6-trifluorophenyl)-1,4-dihydro-1,8-naphthyridine-3-carboxamide] | 13 nM |  | 100%
6 | CC(C)(C)C(NC(=O)c1cn(-c2c(F)cc(F)cc2F)c2nc(N3CC(CO)(CO)C3)c(F)cc2c1=O)C(F)(F)C(F)(F)F (single isomer, unassigned) [Example 214, 7-[3,3-bis(hydroxymethyl)azetidin-1-yl]-6-fluoro-4-oxo-N-[1,1,1,2,2-pentafluoro-4,4-dimethylpentan-3-yl]-1-(2,4,6-trifluorophenyl)-1,4-dihydro-1,8-naphthyridine-3-carboxamide] | 2.1 nM |  | 100%
7 | CC(C)(C)C(NC(=O)c1cn(-c2c(F)cc(F)cc2F)c2nc(N3CC4(COC4)C3)c(F)cc2c1=O)C(F)(F)C(F)(F)F (single isomer, unassigned) [Example 215, 6-Fluoro-7-(2-oxa-6-azaspiro[3.3]hept-6-yl)-4-oxo-N-[1,1,1,2,2-pentafluoro-4,4-dimethylpentan-3-yl]-1-(2,4,6-trifluorophenyl)-1,4-dihydro-1,8-naphthyridine-3-carboxamide] | 8.6 nM | 100% | 
8 | CC(C)(C)C(NC(=O)c1cn(-c2c(F)cc(F)cc2F)c2nc(N3CC(CO)(CO)C3)c(F)cc2c1=O)C(F)(F)C(F)(F)F (single isomer, unassigned) [Example 216, 7-[3,3-bis(hydroxymethyl)azetidin-1-yl]-6-fluoro-4-oxo-N-[1,1,1,2,2-pentafluoro-4,4-dimethylpentan-3-yl]-1-(2,4,6-trifluorophenyl)-1,4-dihydro-1,8-naphthyridine-3-carboxamide] | 1.5 nM | 99% | 
9 | CC(NC(=O)c1cn(-c2c(F)cc(F)cc2F)c2nc(N3CC[C@H](O)C3)c(Br)cc2c1=O)C(F)(F)C(F)(F)F (single isomer, unassigned) [Example 232] | 7 nM |  | 100%
10 | O=C(N[C@@H](C1CC1)C(F)(F)F)c1cn(-c2c(F)cccc2F)c2nc(N3C[C@@H](O)[C@H](O)C3)c(F)cc2c1=O [Example 2, N-[(1S)-1-Cyclopropyl-2,2,2-trifluoroethyl]-1-(2,6-difluorophenyl)-7-[(3R,4R)-3,4-dihydroxypyrrolidin-1-yl]-6-fluoro-4-oxo-1,4-dihydro-1,8-naphthyridine-3-carboxamide] | 35.5 nM |  | 96%
11 | CC[C@H](NC(=O)c1cn(-c2c(F)cccc2F)c2nc(N(C)CCO)c(F)cc2c1=O)C(F)(F)F [Example 4, 1-(2,6-Difluorophenyl)-6-fluoro-7-[(2-hydroxyethyl)(methyl)amino]-4-oxo-N-[(2S)-1,1,1-trifluorobutan-2-yl]-1,4-dihydro-1,8-naphthyridine-3-carboxamide] | 38 nM |  | 89%
12 | O=C(NC12CC(C1)C2)c1cn(-c2c(F)cccc2F)c2nc(N3C[C@@H](O)[C@H](O)C3)c(F)cc2c1=O [Example 5, N-(Bicyclo[1.1.1]pent-1-yl)-1-(2,6-difluorophenyl)-7-[(3R,4R)-3,4-dihydroxypyrrolidin-1-yl]-6-fluoro-4-oxo-1,4-dihydro-1,8-naphthyridine-3-carboxamide] | 69 nM |  | 99%

Continued, values first:

Row | EC50 | Efficiency | Emax | SMILES
13 | 42.3 nM | 96% |  | CC(NC(=O)c1cn(-c2c(F)cc(F)cc2F)c2nc(N3CCC(O)C(O)C3)c(F)cc2c1=O)C(F)(F)C(F)(F)F (single isomer, unassigned) [Example 183, 7-(3,4-Dihydroxypiperidin-1-yl)-6-fluoro-4-oxo-N-(3,3,4,4,4-pentafluorobutan-2-yl)-1-(2,4,6-trifluorophenyl)-1,4-dihydro-1,8-naphthyridine-3-carboxamide]
14 | 1 nM | 100% |  | O=C(NC(C1CC1)C(F)(F)C(F)(F)F)c1cn(-c2c(F)cc(F)cc2F)c2nc(N3C[C@@H](O)[C@H](O)C3)c(F)cc2c1=O (single isomer, unassigned) [Example 202]
15 | 550 nM | 61% |  | O=C(NCC(F)(F)F)c1cn(-c2c(F)cc(F)cc2Cl)c2nc(N3C[C@@H](O)[C@H](O)C3)c(F)cc2c1=O (single isomer, unassigned) [Example 222]
16 | 26 nM | 86% |  | O=C(NCC(F)(F)F)c1cn(-c2c(F)cc(F)cc2Cl)c2nc(N3C[C@@H](O)[C@H](O)C3)c(F)cc2c1=O (single isomer, unassigned) [Example 223]
17 | 110 nM |  | 82% | C[C@H](NC(=O)c1cn(-c2c(F)cc(F)cc2Cl)c2nc(N3C[C@@H](O)[C@H](O)C3)c(F)cc2c1=O)C(F)(F)F (single isomer, unassigned) [Example 225]
18 | 260 nM | 67% |  | C[C@@H](NC(=O)c1cn(-c2c(F)cc(F)cc2Cl)c2nc(N3C[C@@H](O)[C@H](O)C3)c(F)cc2c1=O)C(F)(F)F (single isomer, unassigned) [Example 229]
19 | 38 nM |  | 97% | CC[C@H](NC(=O)c1cn(-c2c(F)cccc2F)c2nc(N3C[C@@H](O)[C@H](O)C3)c(F)cc2c1=O)C(F)(F)F [Example 3, 1-(2,6-Difluorophenyl)-7-[(3R,4R)-3,4-dihydroxypyrrolidin-1-yl]-6-fluoro-4-oxo-N-[(2S)-1,1,1-trifluorobutan-2-yl]-1,4-dihydro-1,8-naphthyridine-3-carboxamide]
20 | 79.5 nM |  | 83% | COC[C@@H](NC(=O)c1cn(-c2c(F)cc(F)cc2F)c2nc(N3C[C@@H](O)[C@H](O)C3)c(F)cc2c1=O)C(C)C [Example 17, 7-[(3R,4R)-3,4-dihydroxypyrrolidin-1-yl]-6-fluoro-N-[(2S)-1-methoxy-3-methylbutan-2-yl]-4-oxo-1-(2,4,6-trifluorophenyl)-1,4-dihydro-1,8-naphthyridine-carboxamide]
